Data published in article PMC2667211, “Kinase Domain Insertions Define Distinct Roles of CLK Kinases in SR Protein Phosphorylation” (Structure(London, England:1993), 2009).

Columns and labels:
CLK3 = molecular target: T1, CLK3 (Homo sapiens, UniProt P49761); test: kinase assay at […] inhibitor; thermal shift screening; format: biochemical
T1 construct: kinase domain, residues 127–484

CLK1 = CLK1 (Homo sapiens, UniProt P49759); test: coupled-enzyme kinase assay at […] inhibitor; thermal shift […]°C; format: biochemical
Sequence of CLK1 (P49759 148-484): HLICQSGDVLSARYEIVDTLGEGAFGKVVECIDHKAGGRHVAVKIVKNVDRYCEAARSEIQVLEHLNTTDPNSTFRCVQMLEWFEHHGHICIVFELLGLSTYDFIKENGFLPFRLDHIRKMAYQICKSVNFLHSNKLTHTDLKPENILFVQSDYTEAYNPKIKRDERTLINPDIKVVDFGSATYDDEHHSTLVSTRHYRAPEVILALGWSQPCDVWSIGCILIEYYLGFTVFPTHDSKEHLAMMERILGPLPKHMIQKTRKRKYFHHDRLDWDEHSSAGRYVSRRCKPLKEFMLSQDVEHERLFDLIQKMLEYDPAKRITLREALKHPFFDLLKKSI

T1 sequence (P49761 127-484): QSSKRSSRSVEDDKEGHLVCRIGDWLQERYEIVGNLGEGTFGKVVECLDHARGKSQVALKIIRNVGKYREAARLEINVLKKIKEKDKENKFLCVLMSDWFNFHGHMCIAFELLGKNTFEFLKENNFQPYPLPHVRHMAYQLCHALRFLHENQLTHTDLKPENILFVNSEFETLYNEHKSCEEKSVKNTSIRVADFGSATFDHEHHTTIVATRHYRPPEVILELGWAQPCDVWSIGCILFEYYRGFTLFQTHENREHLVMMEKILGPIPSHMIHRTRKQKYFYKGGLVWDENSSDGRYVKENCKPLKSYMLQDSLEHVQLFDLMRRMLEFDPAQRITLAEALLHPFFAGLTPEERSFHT

Nc1nc(Nc2ccc(S(N)(=O)=O)cc2)nn1C(=S)Nc1c(F)cccc1F [compound 11, CDK1/2 inhibitor]
% activity at 100 nM (CLK3): < 50 | % activity at 100 nM (CLK1): < 1
